Values quoted from earlier work as cited in patent US20020016372A1, “Method for preventing and treating alzheimer's disease and brain damage associated with cardiov ascular disease and head injury” (priority 2000, published 2002).
Entries after “also recorded” stand apart in the source; their conditions may differ. Like-named read-outs stand apart in the source and are kept apart here.

Columns and labels:
[1] = test system: NGF; conditions: aged rodents
[2] = test system: Human Lymphocytes; conditions: comet assay
[3] = test system: Caco-2 Colon Carcinoma Cells; conditions: oxidant effect
[4] = test system: brain sulfotransferase; conditions: mice; for brain sulfotransferase activity: in vivo
[5] = rat, dietary supplementation
[6] = test system: protein tyrosine phosphorylation in the brain; conditions: chick embryo

COC1=C(OC)C(=O)C(CCCCCCCCCCO)=C(C)C1=O [Idebenone]
NGF levels in the brains [1]: increases | activity in AD patients (European trials): appeared to have some activity | activity in AD patients (U.S. trial (abandoned)): no activity was found

CC1=CC(=O)c2ccccc2C1=O [menadione, 2-methylnaphthoquinone]
DNA damage [2]: can induce DNA damage | calcium-mediated signaling [3]: perturb | thiol-containing compounds in cells [3]: can deplete

CC1=C(C/C=C(\C)CCC[C@H](C)CCC[C@H](C)CCCC(C)C)C(=O)c2ccccc2C1=O [phylloquinone, Phylloquinone]
brain sulfotransferase activity [4]: increased | concentration of menaquinone-4 in the brain [5]: increased; also recorded: augments

CC(=O)CC(c1ccccc1)c1c(O)c2ccccc2oc1=O (stereo not drawn) [warfarin]
incorporation of labeled sulfate into brain sulfatides [4]: decrease | brain sulfotransferase activity [4]: decrease | protein tyrosine phosphorylation in the brain [6]: decreases

vitamin K
protein tyrosine phosphorylation in the brain [6]: increases
